Measurements as given in patent US8895568B2, “Compositions comprising substituted pteridines as agrochemicals” (Dow AgroSciences LLC, priority 2009, dated 2014).
Read-outs that look alike come from different tables or passages of the source.

Tests used:
Type in all cases: in vivo
[1] = tested on: Colletotricum lagenarium; assay: Cucumber Anthracnose (COLLLA), foliar spray, percent disease control
Description: The activity of the compounds as effective fungicides was determined by applying the compounds to plants and observing control of fungal disease. The compounds were formulated at 200 ppm in 10 vol. % acetone plus 90 vol. % Triton X water (deionized water 99.99 wt %+0.01 wt % Triton X100), giving a “formulated test compound.” In a few cases, compounds were formulated at 75 or 8.3 ppm rather than 200 ppm in 10 vol. % acetone plus 90 vol. % Triton X water (deionized water 99.99 wt. %+0.01 wt. % Triton X100), giving a “formulated test compound.” Formulated test compounds were applied to plants using a turn table sprayer fitted with two opposing air atomization nozzles which delivered approximately 1500 L/ha of spray volume. All plants were inoculated with spores of the fungus the day after treatment, then incubated in an environment conducive to disease development. Disease severity was evaluated 4 to 15 days later, depending on the disease and the speed of disease development. The following experiments were performed in the laboratory to determine the fungicidal efficacy of the compounds of the invention. Cucumber Anthracnose (causal agent Colletotricum lagenarium; Bayer code COLLLA): Cucumber plants (variety Bush Champion) were grown from seed in a soil-less peat-based potting mixture (Metromix) until the first true leaf was 20-80% expanded. Each pot contained 1 seedling. These plants were sprayed until wet with the formulated test compound. On the following day, the leaves were inoculated with an aqueous spore suspension of Colletotricum lagenarium and the plants were kept in high humidity for one day to permit spores to germinate and infect the leaf. The plants were then transferred to a growth chamber until disease developed on untreated control plants. […] The effectiveness of the test compounds at controlling disease when sprayed on leaves was determined by assessing the severity of disease on treated plants, then converting the severity to percent control based on the level of disease on untreated, inoculated plants. Data are the level (in percent) at which the given disease was controlled when the given compound was applied to the foliage of the plants at 200 ppm. In a few cases (noted in the table) the compound was applied to the plants at 75 ppm or 8.3 ppm.

[2] = tested on: Pseudoperonospora cubensis; assay: Cucumber Downy Mildew (PSPECU), foliar spray, percent disease control; details: read-out: PSPECU percent control
Description: The activity of the compounds as effective fungicides was determined by applying the compounds to plants and observing control of fungal disease. The compounds were formulated at 200 ppm in 10 vol. % acetone plus 90 vol. % Triton X water (deionized water 99.99 wt %+0.01 wt % Triton X100), giving a “formulated test compound.” In a few cases, compounds were formulated at 75 or 8.3 ppm rather than 200 ppm in 10 vol. % acetone plus 90 vol. % Triton X water (deionized water 99.99 wt. %+0.01 wt. % Triton X100), giving a “formulated test compound.” Formulated test compounds were applied to plants using a turn table sprayer fitted with two opposing air atomization nozzles which delivered approximately 1500 L/ha of spray volume. All plants were inoculated with spores of the fungus the day after treatment, then incubated in an environment conducive to disease development. Disease severity was evaluated 4 to 15 days later, depending on the disease and the speed of disease development. The following experiments were performed in the laboratory to determine the fungicidal efficacy of the compounds of the invention. Cucumber Downy Mildew (causal agent Pseudoperonospora cubensis; Bayer code […]): Cucumber plants (variety Bush Champion) were grown from seed in a soil-less peat-based potting mixture (Metromix) until the first true leaf was 20-80% expanded. Each pot contained 1 seedling. These plants were sprayed until wet with the formulated test compound. On the following day, the leaves were inoculated with an aqueous suspension of downy mildew sporangia and the plants were kept in high humidity for one day to permit sporangia to germinate and infect the leaf. The plants were then incubated in a growth chamber until disease developed on untreated control plants. […] The effectiveness of the test compounds at controlling disease when sprayed on leaves was determined by assessing the severity of disease on treated plants, then converting the severity to percent control based on the level of disease on untreated, inoculated plants. Data are the level (in percent) at which the given disease was controlled when the given compound was applied to the foliage of the plants at 200 ppm. In a few cases (noted in the table) the compound was applied to the plants at 75 ppm or 8.3 ppm.

[3] = tested on: Cochliobolus sativus; assay: Spot Blotch of Wheat (COCHSA), foliar spray, percent disease control; details: Bipolaris sorokiniana, read-out: COCHSA percent control

Row | Compound | pest or weed control at 200 µg/mL ([1]; foliar) [%] | pest or weed control at 200 µg/mL ([2]; foliar) [%] | pest or weed control at 200 µg/mL ([3]; foliar) [%] | pest or weed control at 200 µg/mL ([1]; foliar spray) [%] | pest or weed control at 200 µg/mL ([2]; foliar spray) [%] | pest or weed control at 200 µg/mL ([3]; foliar spray) [%]
1 | COc1ccc(CCNc2ncnc3nccnc23)cc1F [Compound 176] | 0 to 49 | 0 to 49 | 0 to 49 |  |  | 
2 | COc1cc(CCNc2ncnc3nccnc23)cc(OC)c1O [Compound 181] | 0 to 49 | 0 to 49 | 0 to 49 |  |  | 
3 | CC(C)(C)c1ccnc(Oc2ccc(CCNc3ncnc4nccnc34)cc2)c1 [Compound 207, {2-[4-(4-tert-Butylpyridin-2-yloxy)-phenyl]-ethyl}-pteridin-4-ylamine] |  |  |  | 0 to 49 | 80 to 100 | 0 to 49
4 | FC(F)(F)c1ccnc(Oc2cccc(CCNc3ncnc4nccnc34)c2)c1 [Compound 46] | 80 to 100 | 80 to 100 | 0 to 49 |  |  | 
5 | COc1ccc(CCNc2ncnc3nccnc23)cc1Br [Compound 210] |  |  |  | 0 to 49 | 80 to 100 | 0 to 49
6 | CC(Sc1ncnc2nccnc12)c1ccc(C#N)cc1 (stereo not drawn) [Compound 78] | 0 to 49 | 0 to 49 | 0 to 49 |  |  | 
7 | CC(C)(C)c1cc[n+]([O-])c(Oc2ccc(CCNc3ncnc4nccnc34)cc2)c1 [Compound 172, {2-[4-(4-tert-Butyl-1-oxypyridin-2-yloxy)-phenyl]-ethyl}-pteridin-4-ylamine] | 0 to 49 | 80 to 100 | 0 to 49 |  |  | 
8 | FC(F)(F)c1ccnc(Cl)c1Oc1ccc(CCNc2ncnc3nccnc23)cc1 [Compound 56] | 0 to 49 | 50 to 79 | 0 to 49 |  |  | 
9 | COc1cc(CCNc2ncnc3nccnc23)ccc1Oc1cc(C#N)ccn1 [Compound 57] | 0 to 49 | 80 to 100 | 0 to 49 |  |  | 
10 | CC(C)Cc1nnc(Oc2ccc(CCNc3ncnc4nccnc34)cc2)s1 [Compound 26] | 0 to 49 | 80 to 100 | 0 to 49 |  |  | 
11 | O=Cc1cc(Cl)cnc1Oc1ccc(CCNc2ncnc3nccnc23)cc1 [Compound 102] | 0 to 49 | 80 to 100 | 0 to 49 |  |  | 
12 | FC(F)(F)c1ccc(Oc2cccc(CCNc3ncnc4nccnc34)c2)nc1 [Compound 47] | 50 to 79 | 80 to 100 | 0 to 49 |  |  | 
13 | FC(F)(F)c1ccnc(Oc2ccc(OCCNc3ncnc4nccnc34)cc2)c1 [Compound 83] | 80 to 100 | 80 to 100 | 0 to 49 |  |  | 
14 | CON=C(C)c1ccnc(Oc2ccc(CCNc3ncnc4nccnc34)cc2)c1 [Compound 63] | 0 to 49 | 80 to 100 | 0 to 49 |  |  | 
15 | Oc1cccc(CCNc2ncnc3nccnc23)c1 [Compound 20] | 0 to 49 | 0 to 49 | 0 to 49 |  |  | 
16 | Oc1ccc(OCCNc2ncnc3nccnc23)cc1 [Compound 80] | 0 to 49 | 0 to 49 | 0 to 49 |  |  | 
17 | Cc1c(O)ccc(CCNc2ncnc3nccnc23)c1C [Compound 175] | 0 to 49 | 0 to 49 | 0 to 49 |  |  | 
